We go through 86 compounds from a melting point compilation (Tetko et al.; mined from patent text by program, amines drawn as free bases though some values may be those of a salt).

Molecules are shown by their SMILES. Where only a bound is given, the exact number is not on record here.

For `Cc1nc2c(N)nc3cc(OCc4ccccc4)ccc3c2n1CC(C)C`, the melting point worked out at 172 °C. The value for `COc1ccc2cccc(Cc3ccccc3)c2c1O` was 67 to 71 °C. The value for `CS(=O)(=O)c1ccc(-c2nn3cc(C(F)(F)F)oc3c2-c2ccc(F)cc2)cc1` was 186 to 189 °C. The value for `CSc1ccc(C(=O)c2cc(C)cc(CC(N)=O)c2N)cc1` was 188 to 190 °C; that for `O=c1c(-c2ccccc2)coc2cc(O)c(Cl)c(Cl)c12` was more than 290 °C. With `CC(=O)Nc1ccc(S(=O)(=O)Nc2ccn(C3CCCCC3)c(=O)n2)cc1`, the melting point lay within 219 to 234 °C. With `NS(=O)(=O)c1ccc(CCN2C(=O)c3ccccc3C2=O)s1` the figure was 226 to 229 °C. In the case of `CCSc1ccc(C(=O)NCc2ccc3c(c2)C(=O)N(C2(C)CCC(=O)NC2=O)C3=O)cc1` (stereo unspecified), the melting point lay within 135 to 137 °C. With `CCCCN1CCC(N(Cc2ccc(Nc3ccnc4ccccc34)cc2)C(C)=O)CC1`, the melting point was in the range of 85 to 105 °C.

With `COc1cc(OC)cc(C2CN3CCC2CC3)c1` (stereo unspecified), the melting point fell in the range of 142 to 145 °C. With `CC(=O)OC12Oc3cc(C(C)C)ccc3C1(OC(C)=O)C(=O)c1c(NS(C)(=O)=O)cccc12` (stereo unspecified) the figure was 96 to 100 °C; with `COc1cc(OC)nc(N2CCN(Cc3ccc(CNC(C)=O)cc3)CC2)n1`, 130 to 131 °C. Compound `COCc1cc(O)n[nH]1` had a melting point of 123 to 125 °C. The value for `C#CCNc1cc(C(=O)OCC)cc(S(N)(=O)=O)c1Oc1ccccc1` was 189 to 190 °C; that for `CNC(=O)[C@H]1CN(c2ccc3c(c2)sc(=O)n3C)C(=O)O1` was 264 to 267 °C; that for `COc1cc2nc(Cn3cnc4c(N)ncnc43)n(-c3ccccc3Cl)c(=O)c2cc1OC` was 282 to 283 °C.

`CCCCN1CCc2ccccc2C1CNC(=O)c1cc(OC)c(OC)c(OC)c1` (stereo unspecified) gave a melting point of 81 to 83 °C. `O=C(CN1CC(c2ccc(F)cc2)CC1=O)ON1C(=O)CCC1=O` (stereo unspecified) returned a melting point of 120 to 123 °C. The value for `N#CCC(=O)NNC(=O)Nc1ccsc1CC(=O)Oc1ccc([N+](=O)[O-])cc1` was 132 to 135 °C; that for `CCOc1ccc(C(=O)[C@H]2CC=CC[C@H]2C(=O)O)cc1OCC` (relative stereo) was 125 to 127 °C; that for `OC(=S)CC(c1ccc(OCc2ccc3ccccc3n2)cc1)c1ccc(OCc2ccc3ccccc3n2)cc1` was 175 to 180 °C. The value for `CCCCCc1ncc(C(=O)O)s1` was 90 °C.

`Cc1c(-c2ccc(O)cc2)sc(C=O)c1-c1ccc(O)c(C=O)c1` showed a melting point of 228 to 230 °C. The value for `COC(=O)CC(O)CC(O)C=Cc1c2c(nn1-c1ccc(F)cc1)C(Cc1ccc(-c3ccccc3)cc1)CCC2` (racemic) was 118 to 119 °C; that for `C=CCNc1nc(=O)c2cccnc2n1Cc1ccc(F)cc1` was 190 to 194 °C; that for `O=C(O)CCc1c(C(=O)O)[nH]c2cc(-c3ccccc3)cc(-c3ccccc3)c12` was 243 to 245 °C. With `CC(C)(C)c1cc(SCC(=O)N2CCN(c3ccc(NC(=N)c4cccs4)cc3)CC2)cc(C(C)(C)C)c1O` the figure was 67 to 69 °C; with `CCC(=O)CC(=O)OCCC#N`, 98 to 100 °C; with `CC1(NC(=O)c2ccccc2)COC(c2nc(-c3ccc(F)cc3)c(-c3ccncc3)[nH]2)OC1` (stereo unspecified), 235 to 236 °C. With `CCN(CC)CCNC(=O)c1cccc2c(=O)c3cccc(I)c3[nH]c12` the figure was 148 to 150 °C. The compound `CN(CCNC(=O)NCCCOc1cccc(CN2CCCCC2)c1)CCC(c1ccc(F)cc1)c1ccccn1` (stereo unspecified) gave a melting point of 111 to 115 °C. With `CS(=O)(=O)c1ccc(-c2cc(C(=O)CCCO[N+](=O)[O-])nn2C2CCCCC2)cc1` the figure was 122 to 124 °C; with `C=C(COC1CC2C3CCC4=CC(=O)CCC4(C)C3(F)C(O)CC2(C)C1(O)C(=O)CO)c1ccccc1` (stereo unspecified), 169 to 171 °C; with `O=C(O)CCC(=O)c1ccc(-c2ccc(Cl)cc2)o1`, 142 to 144 °C.

Regarding `Cc1c(NC(=O)CC(C)(C)C)c2c(c3c1C(c1ccc(C(C)C)cc1)CO3)CCC2` (stereo unspecified), the melting point was in the range of 201 to 202 °C.

For the compound `Cc1ccc(O)c(-c2cc3ccccn3n2)c1`, the melting point was determined as 108 °C. The value for `COc1ccc2c(c1)[C@H]1CN(C)CC[C@@H]1CC2=O` (relative stereo) was more than 250 °C; that for `NC(=O)CC1CCC(OCc2ccccc2)c2sccc21` (stereo unspecified) was 139 to 143 °C.

`COc1ccc2c(C(=O)c3cc(OC)c(OC)c(OC)c3)c(-c3ccc(OC)c(O)c3)[nH]c2c1` showed a melting point of 189 to 190 °C. Regarding `N=C(N)NCCCC(NC(=O)CCS)C(=O)O` (stereo unspecified), the melting point was 230 °C. The value for `O=C1COc2ccc(CN3CCN(c4ccccc4)CC3)cc2N1` was 207 to 209 °C; that for `CCCCN(CCCC)c1ccc(C=CC2=C(C#N)C(=C(C#N)C#N)OC2(C)C)c(OC)c1` was 222 to 226 °C; that for `Cc1ccc(-c2nc3cccnc3n2CC(=O)N(C)C)s1` was 193 to 197 °C. Compound `CCOC(=O)c1cc2c(nc1C)CCCCC2` displayed a melting point of 53 to 54 °C. The value for `CCN(CC)c1ccc2c(c1)Cc1c-2[nH]c2ccccc12` was 204 to 206 °C; that for `C/C(CCN1CCCC1c1ccc(Cl)c(Cl)c1)=N\O` (stereo unspecified) was 145 to 147 °C. `CCc1nn(CCNC(=O)COC)c(CC)c1Oc1cc(Cl)cc(Cl)c1` had a melting point of 75 to 76 °C. With `O=C(CCCCCN1CCN(c2ccccc2)CC1)Nc1ccc(O)cc1` the figure was 157 to 159 °C; with `COC(=O)C1C(CC(C)C)C(C(=O)OC)C(O)(C(F)(F)F)OC1(O)C(F)(F)F` (stereo unspecified), 67 to 73 °C; with `CC(=O)SCCC1NSc2cc(S(N)(=O)=O)c(Cl)cc2N1` (stereo unspecified), 192 to 195 °C. With `O=C(O)CN(CC(CO)N(CCCO)CC(=O)O)CC(CO)N(CCCO)CC(=O)O` (stereo unspecified) the figure was 173 to 177 °C; with `CCCCc1nn(-c2ccccc2C(F)(F)F)c(=O)n1Cc1ccc(-c2ccccc2S(=O)(=O)Nc2ccc([N+](=O)[O-])cc2)cc1`, 186 to 187 °C; with `N#Cc1cccn1-c1cccc(C(=O)N=C(N)N)c1`, 136 to 138 °C.

For `Cc1cc(C#Cc2ccccc2)nc(Oc2cc(C(F)(F)F)nn2C)c1`, the melting point was determined as 56 °C. With `CCOc1cc2cc(C(=O)OC)c(C(=O)OC)c(-c3ccnc(Cl)c3)c2cc1OC` the figure was 205 to 208 °C; with `CN(C)C=C(C(=O)C(=O)c1ccccc1)c1ccc(C(=O)O)cc1`, 208 to 209 °C.

As for `CN1C2CCCC1CC(NC(=O)c1cccc3nc(-c4ccc(Cl)cc4)oc13)C2` (stereo unspecified), the melting point fell in the range of 193 to 196 °C. With `COc1ccc(-c2[nH]nc3c2C(=O)c2c(NC(=O)Cc4ccc(Cl)cc4Cl)cccc2-3)cc1` the figure was 286 °C. With `Cc1ccc(-c2cc3c(n2-c2ccc(O)c(C(=O)O)c2)CCCC3)cc1` the figure was 212 to 214 °C; with `Cc1cc2c(-c3ccccc3Cl)c(NC(=O)Nc3cccc([N+](=O)[O-])c3)c(=O)n(C)c2cc1C`, 190 to 192 °C. The value for `Cc1cc(-c2ccc(C(F)(F)F)cc2)nc(-c2ccnc(-c3ccc(S(N)(=O)=O)s3)c2)n1` was 264 °C; that for `COc1ccc2c(C(=O)N(C=O)CC(=O)O)cccc2c1C(F)(F)F` was 142 to 144 °C. In turn, `CSc1sc(-c2ccn(C)n2)c2c1-c1oncc1C(C)(C)C2` registered a melting point of 128 to 130 °C.

Take `COC(=O)C(=O)c1cn(CCO)c2ccc(OCc3ccccc3)cc12`: the melting point was in the range of 148 to 150 °C. With `C=CCOC(=O)C(C)(C)ON1C(=O)c2ccccc2C1=O` the figure was 51 to 53 °C; with `COc1cccc(C(=O)Nc2ccc3ccc(OC)nc3n2)c1`, 135 °C; with `CC(=O)NC(=O)Nc1ccc(OS(=O)(=O)c2cccc(C(F)(F)F)c2)cc1[N+](=O)[O-]`, 196 °C.

In turn, `Fc1ccc(C2Cc3cnc(NCCCN4CCCCC4)nc3-c3ccccc32)cc1` (stereo unspecified) returned a melting point of 60 to 62 °C.

The compound `CCOC(=O)c1cn(-c2nc3ccccc3s2)cn1` came in with a melting point of 131 to 133 °C. The value for `O=c1c2ccc(O)cc2oc2c1oc1ccccc12` was more than 300 °C; that for `COc1cc(Br)ccc1OC(=O)c1ccccc1` was 73 to 75 °C. With `CCCc1cc(CCC)c2oc(Cc3ccc(OC)cc3)c(C)c2c1O` the figure was 70 to 72 °C; with `CC(=O)Nc1c(C(=O)C2CCCCC2)[nH]c2cc(Cl)ccc12`, 198 °C; with `CC(C)(C)OC(=O)Nc1ccc(CN2OCC(C)(C)C2=O)c(Cl)c1`, 124 to 126 °C. The value for `N#CCn1nc2n(c1=O)-c1ccc(Cl)nc1C(c1ccccc1Cl)=NC2` was 198 to 200 °C; that for `NS(=O)(=O)c1cc(Cc2ccccc2)c(O)c2ccccc12` was 167 to 168 °C.

`CCc1ccc(C(=O)CCCCCN2CCC(CNC(=O)c3cc(Cl)c(N)cc3OC)CC2)cc1` registered a melting point of 140 to 145 °C. With `COc1cc(-c2ccccc2)n(-c2ccc(C)cc2)c1-c1ccccc1` the figure was 157 to 158 °C; with `C#Cc1cccc([C@H]2C[C@H]2NC(=O)Nc2ccc(Cl)cn2)c1` (racemic), 148 to 150 °C. Turning to `CCCCCCCNC(=O)N(C)c1cccc(-c2ccc(C=C(OC)C(=O)OC)cc2)c1`, the melting point came to 93 °C.

As for `CC1CN(C2=Nc3ccccc3Oc3ccccc32)CC(C)N1` (stereo unspecified), the melting point lay within 112 to 114 °C. With `O=C1OC(O)(C(F)(F)F)c2cccc(O)c21` (stereo unspecified) the figure was 128 to 129 °C; with `CCCCCc1nnc(Sc2cc(O)c(C(C)(C)CC(C)(C)C)cc2O)n1-c1ccccc1`, 198 °C.

`COc1ccc(-c2noc(C)n2)c(OC)c1C`: the melting point is 105 to 107 °C. With `Fc1cc(F)c(-c2c(Cl)nc3nccn3c2NCC(F)(F)F)c(F)c1` the figure was 155 to 157 °C; with `COc1ccc(/C=C/C(=O)/C=C/C(=O)O)cc1`, 104 °C.

By melting point is commonly meant the temperature, or range, at which the solid turns liquid.
